One series deals with all four WNK kinases. Particulars: cited from earlier work.
The test system of a further series is mice. In words: Adverse effects of WNK463 administered to mice. The format is in vivo, mouse. Conditions: 2.5 mg/kg dose.
For series [1], the system named is mouse model of ischemic stroke. In words: Infarct volume and hemispheric swelling after transient MCAO. Particulars: 2.5 mg/kg; 24 hr reperfusion. The series is classed as in vivo. The source says: Under an operating microscope, the left common carotid artery was exposed through a midline incision. […] The ECA was dissected further distally and permanently ligated. The internal carotid artery (ICA) was isolated and carefully separated from the adjacent vagus nerve. A 12 mm length of silicon-coated nylon filament (size 6-0, native diameter 0.11 mm; diameter with coating 0.21+/−0.02 mm; coating length 5-6 mm; Doccol Corporation, Sharon, Mass.) was introduced into the ECA lumen through a puncture. The silk suture around the ECA stump was tightened around the intraluminal nylon suture to prevent bleeding. The nylon suture was then gently advanced from the ECA to the ICA lumen until mild resistance was felt (˜9 mm). For reperfusion, the suture was withdrawn 50 min after MCAO to restore blood flow. Body temperature was maintained for the duration of the experiment between 36.5° C.-37° C. with a small animal heating pad (Kent Scientific).
At 24 hours reperfusion, mice were anesthetized with 5% isoflurane and then decapitated. Coronal brain tissue slices (2 mm) were stained for 20 minutes at 37° C. with 1% 2,3,5-triphenyltetrazolium chloride monohydrate (TTC; Sigma, St Louis, Mo.) in PBS solution. […] The extent of hemispheric swelling was calculated using the following equation: swelling (% contralateral side)=[(volume of ipsilateral hemisphere−volume of contralateral hemisphere)/volume of contralateral hemisphere]×100 (Bhuiyan et al. (2017) Journal of cerebral blood flow and metabolism: official journal of the International Society of Cerebral Blood Flow and Metabolism 37: 2780-2794).
Referring to FIG. 11A, an experimental design of ischemic stroke study is shown. Vehicle or ZT-1a is administered at 3 hrs and 8 hrs post-MCAO.
Referring to FIG. 11B, representative images and quantification of infarct volume and hemispheric swelling in TTC-stained coronal sections of mouse brains 24 hrs post-MCAO are shown. Vehicle (DMSO, 2 ml/kg) or ZT-1a (2.5 or 5.0 mg/kg) were administered with an initial half dose at 3 hrs and the second half dose at 8 hr reperfusion via intra-peritoneal injection (i.p.). Data are mean±SD, n=6-12 per group (male). * p<0.05.

Series [2] concerns normotensive and hypertensive rodent models. Conditions: oral administration of 1-10 mg/kg; cited from earlier work.

The values below come from US11414379B2, “SPAK kinase inhibitors as neuroprotective agents” (United States Government as represented by the Department …, priority 2018, dated 2022).

“Also recorded” adds a separate entry of the source.

On to `CC(C)(C)NC(=O)c1cncn1C1CCN(c2ccc(-c3nnc(C(F)(F)F)o3)cn2)CC1` [WNK463], for which the “inhibition of WNK kinases in vitro” value in the series on all four WNK kinases is recorded as “nanomolar range”. Besides, in the series with mice, the adverse effects entry is “ataxia and breathing difficulties”. Also, the “effect on infarct volume and hemispheric swelling” value in series [1] is recorded as “reduced neither infarct volume nor hemispheric swelling; also recorded: no neuroprotective effects”. Besides, in series [2], the “effect on blood pressure” value is listed as “reduced blood pressure”.
